Legend:
Type in all cases: functional
Settings in all cases: read-out: ED50 (the source's name)
HCT-15 = experiment: Cytotoxicity against human HCT15 cells
A549 = experiment: Cytotoxicity against human A549 cells
SK-MEL-2 = experiment: Cytotoxicity against human SK-MEL-2 cells
SK-OV-3 = experiment: Cytotoxicity against human SKOV3 cells
XF498 = experiment: Cytotoxicity against human XF498 cells

Measured: EC50

C=CCCCCCCCc1cc(OC)cc[n+]1CC(=O)[O-] [MONTIPYRIDINE]
> 30 µg/mL: all assays above

Reference: ChEMBL document CHEMBL1155731, “Montipyridine, a new pyridinium alkaloid from the stony coral montipora species” (2001)
